Assay results from patent US8586369B2, “Ion channel-forming peptides” (The Regents of the University of California, priority 2007, dated 2013).

How the values were obtained:
Assay type in all cases: biochemical
[1] = Single channel recordings of gA derivatives in planar lipid bilayers (Example 2); conditions: 20 mM KCl
Protocol: Formation of Planar Lipid Bilayers: Planar lipid bilayers were formed by the “folding technique.” Briefly, a film (e.g., Teflon®, Eastern Scientific Inc, pore diameter 0.1-0.2 mm) that was pretreated on both sides of the pore with 2 μL of 5% (v/v) hexadecane in pentane. This film was mounted using vacuum grease (Dow Corning, High vacuum grease) to a custom-made Teflon chamber separating two buffer compartments each with a volume capacity of 4 mL. After addition of 1 mL of electrolyte (20 mM KCl buffered with 0.2 mM HEPES pH 7.4 or 140 mM KCl buffered with 10 mM phosphate pH 8.0) to each compartment, lipids were spread at the air-water interface of the electrolyte solution in both compartments. Three additional milliliters of the same electrolyte solution were added to each compartment to raise the liquid level above the aperture in the Teflon film. The bilayers were formed on the pore of the Teflon film by aspirating the electrolyte solution into a 3 mL syringe, followed by dispensing the electrolyte solution back into each compartment.
Ion Channel Measurements: Single channel recordings in “voltage clamp mode” were performed using Ag/AgCl pellet electrodes (Warner Instruments) in each compartment of the bilayer setup. Data acquisition and storage was carried out using custom software in combination with an EPC-7 patch clamp amplifier from Heka (set at a gain of 10 mV pA^−1 and a filter cutoff frequency of 3 kHz). The data acquisition board for the amplifier was set to a sampling frequency of 15 kHz. All current traces shown in the figures were further filtered using a digital Gaussian low-pass filter with a cutoff frequency of 4 Hz.
The analysis of single channel current traces was performed by computing histograms of the currents from the original current versus time traces with ClampFit 9.2 software from Axon Instruments. From these histograms, main current values were extracted by fitting a Gaussian function to the peaks in the histograms. […]

[2] = Monitoring a 1,3-dipolar cycloaddition (click) reaction in situ using single ion channel recordings; conditions: 40 pM gramicidazide, 2 mM propargyl sulfonate, 0.5 mM CuSO4
Protocol: Gramicidazide was added to a final concentration of 40 pM to both 4 mL chambers of a stirred lipid bilayer setup comprised of zwitterionic 1,2-diphytanoyl-sn-glycero-3-phosphatidylcholine (DiPhyPC) lipids that separated two compartments containing 20 mM KCl, 0.2 mM HEPES buffer, 2 mM sodium ascorbate (as a reducing agent for Cu^II), and 2 mM propargyl sulfonate. The final pH of this solution was 6.9. CuSO4 was added (to give a final concentration of Cu^II of 0.5 mM) to both chambers of the bilayer setup and recorded the single ion channel activity over time. […] The cycloaddition reaction was monitored at a constant applied potential of +75 mV. […]
Monitoring a 1,3-dipolar cycloaddition (“click”) reaction in situ using single ion channel recordings: About 3 μl, (from a 100 ng mL^−1 solution in ethanol) of gramicidazide was added (to afford a final concentration of 40 pM of gramicidazide) to each compartment of a bilayer setup containing as electrolyte 20 mM KCl and 0.2 mM HEPES buffer. […] This strategy made it possible to observe measured currents that would frequently return to baseline (i.e., current steps separated by no observed channel events). Consequently, a small number of events over time were observed, and thus analyzed the data over a window of time rather than at specific time points. […] For the 4-15 minute time window, we measured 26 total channel events. […]

[3] = Single channel conductance of gA phosphate and its hydrolysis product in planar lipid bilayers (Example 3); conditions: for single channel conductance (γ): 50 mM CsCl, 1 mM MgCl2, 0.5 mM K2CO3, pH 9.8, slopes of I-V curves
Protocol: Formation of Planar Lipid Bilayers: Planar lipid bilayers were formed by the “folding technique” as previously described. The recording electrolyte was 1 mM MgCl2, 50 mM CsCl buffered with 0.5 mM K2CO3 at pH 9.8. Briefly, we spread a solution containing 25 mg mL^−1 1,2-diphytanoyl-sn-glycero-3-phosphatidylcholine (DiPhyPC) lipids in pentane at the air-water interface of the electrolyte solution in both compartments of the bilayer setup. 3 mL of the total volume of 4 mL of electrolyte solution in each bilayer compartment was aspirated into a syringe, followed by dispensing the electrolyte solution back into each compartment.
Ion Channel Measurements: We performed single channel recordings in “voltage clamp mode” using Ag/AgCl pellet electrodes (Warner Instruments) in each compartment of the bilayer setup. Data acquisition and storage was carried out using custom software in combination with an EPC-7 patch clamp amplifier from Heka (set at a gain of 10 mV pA-1 and a filter cutoff frequency of 3 kHz). The data acquisition board (National Instruments, Austin, Tx) for the amplifier was set to a sampling frequency of 15 kHz. The current traces shown in the FIG. 2 were further filtered using a digital Gaussian low-pass filter with a cutoff frequency of 4 Hz.
Analysis of the single channel current traces was performed by computing histograms of the currents from the original current versus time traces with ClampFit 9.2 software from Axon Instruments. From these histograms we extracted the main current values by fitting a Gaussian function to the peaks in the histograms. All conductance values were obtained from the slopes of I-V curves.

[4] = system: alkaline phosphatase (AP); assay: Enzymatic hydrolysis of gA phosphate in the presence of AP monitored by single ion channel recordings
Protocol: To detect a change in single ion channel currents, gA phosphate was added to a final concentration of about 200 pM to both compartments of a planar lipid bilayer platform (FIG. 15) containing a recording electrolyte. AP was added to a final concentration of about 600 nM and the enzymatic conversion of gA phosphate to its hydrolysis product over time was monitored. We estimated the time-dependent conversion of gA phosphate to its hydrolysis product by comparing the fraction of events from gA phosphate to the fraction of events from its hydrolysis product throughout the course of the reaction. […]
Procedure for monitoring the enzymatic hydrolysis of 6 in the presence of AP using single ion channel recordings: For in situ measurements, about 19 μL (from a 100 ng mL-l solution in ethanol) of gA phosphate (to afford a final concentration of 200 pM of 6) was added to each compartment of a bilayer setup containing recording electrolyte. […] Ion channel events were recorded continuously over the course of the reaction. […] Single ion channel events were recorded during a 10 min time window once a day (50-250 events) over the course of 4 days by filling both compartments of the bilayer setup with 4 mL of the solutions with the desired AP concentration. […]

Substance	single channel conductance (γ) ([1]; 0.2 mM HEPES, 2 mM sodium ascorbate, 2 mM propargyl sulfonate, 0.5 mM CuSO4, pH 6.9, pure samples) [pS]	ion channel activity in planar lipid bilayers ([1]; applied potential 100 mV, 0.2 mM HEPES pH 7.4)	time after which the click reaction was complete [2] [min]	single channel conductance (γ) [3]	single channel conductance (γ) ([3]; listed as 6)	single channel conductance (γ) ([3]; listed as phosphorylated derivative) [pS]	factor by which conductance is larger than that of the gA phosphate hydrolysis product ([3]; 125 mV, buffered recording electrolyte)	time after which almost all recorded ion channel events originated from the hydrolysis product ([4]; 200 pM gA phosphate, 600 nM AP, in situ) [min]	hydrolysis in the absence of AP ([4]; ion channel experiments over the course of 1 h, pH 9.8 recording electrolyte)
gramicidazide	3.3±0.1	retained well-defined ion channel activity	~90						
gramicidine A (gA) phosphate [gA phosphate]				≈ 16 pS	16.4±0.3 pS and ≈ 16 pS	16.4±0.3	4	35	No hydrolysis was observed
